Data set [1] relates to Varroa destructor. The following applies: for mortality for Varroa mites: after 24 hours. On the procedure:
About 300 bees (Apis mellifera) infected with Varroa destructor were taken from a hive superinfected with Varroa destructor. The bees were then placed in a device allowing to detach Varroa mites attached to the bees (device described in Community model n° 003419415-0001) filled with icing sugar. The device was stirred for 2 minutes to sample the Varroa mites attached to the bees. The icing sugar allows to interfere between the bee and the Varroa mite that was attached thereto. Varroa mites were harvested with icing sugar because they pass through the holes in the device, unlike bees. The Varroa mites were then separated from the icing sugar.
The Varroa mites thus recovered were dispatched in boxes (10 Varroa mites per box).
(§1) The bees were then dispatched in the boxes (10 per box).
(§2) The bees were then put to sleep for a few minutes using CO2 (flow of 3 liters for 20 seconds) in order to deposit 1 μL of compound to be tested on their thorax using a pipette. It should be noted that the bees which received romifidine hydrochloride at a concentration of 10 μg/μL received 2 μL of product. The bees were unconscious for the time the compound to be tested was deposited, that is to say around three minutes, then they woke up.
(§3) After thoracic deposition of the compound to be tested, the 10 bees from the same box were transferred to a box containing the 10 Varroa mites (cf. “Preparation of Varroa mites” above). Liquid sugar was left in each of the boxes to feed the bees during the observations. The series of boxes was then placed in an oven at […] with a humidity of 50% in order to approximate hive conditions as closely as possible.
(§4) The mortality of Varroa mites and bees was then monitored 5 minutes, 2 hours, 4 hours and 24 hours after application of the compound to be tested to the bees. Dead Varroa mites correspond to Varroa mites detached from the bees. Dead bees correspond to bees which no longer move and which are often placed on their thorax.
(§5) The following compositions were applied to the thorax of the bees: • Solvent, • Amitraz at 1 μg/μL in acetone, • Clonidine hydrochloride at 100 μg/μL, 10 μg/μL, 1 μg/μL and 0.1 μg/μL in methanol, • Detomidine hydrochloride monohydrate at 1 μg/μL in methanol, • Dexmedetomidine hydrochloride at 100 μg/μL, 10 μg/μL, 1 μg/μL and 0.1 μg/μL in methanol, • Romifidine hydrochloride at 10 μg/μL and at 5 μg/μL in methanol, • Tizanidine hydrochloride at 1 μg/μL in methanol, • Medetomidine hydrochloride at 0.1 μg/μL in ethanol, • Levomedetomidine hydrochloride at 100 μg/μL, 10 μg/μL, 1 μg/μL and 0.1 μg/μL in methanol, • Octopamine at 1 μg/μL in ethanol. Results

For data set [2], the system named is bees. Put plainly: Mortality of adult bees in treated beehives (dead bee traps). The data set is classed as in vivo. On the procedure: (§6) 18 hives of bees were divided into 6 groups of 3 homogeneous hives as regards the strength of the colonies (number of bees) and the Varroa infestation.
(§7) The tested compounds were applied in the form of a gel three weeks after the queen was caged. The activity of the compounds was studied for a period of 9 days.
For this purpose, dead bee traps disposed in front of the hives were used.
(§8) The following compounds were tested: • Dexmedetomidine at 55 mg/hive in hydrochloride form, • Dexmedetomidine at 110 mg/hive in hydrochloride form, • Dexmedetomidine at 220 mg/hive in hydrochloride form, • Detomidine at 38.4 mg/hive in hydrochloride form, • Detomidine at 110 mg/hive in hydrochloride form, • Detomidine at 220 mg/hive in hydrochloride form, Results

The test system of data set [3] is Varroa destructor. The data set can be described thus: Efficiency against Varroa mites in beehives outside the brood (gel application). The data set is classed as in vivo.
Source text: as §6
The queen of each hive was caged 3 weeks before the application of the tested compounds. The application of the tested compounds was therefore carried out in a situation outside the brood, which allows the forced passage of the Varroa mites from their reproduction phase to their phoresy phase (they are therefore all present on the bees).
as §7
Following these 9 days of treatment, a control treatment with oxalic acid was carried out (duration of treatment equal to 1 week).
Counts of Varroa mites falling on the floor were carried out at regular time intervals to quantify the number of dead Varroa mites.
The efficiency of the treatment was calculated by taking the sum of all the dead Varroa mites from D0 to D9 (tested compounds) and dividing it by the sum of all the dead Varroa mites from D0 to D16 (tested compounds+control treatment).
as §8

Data set [4] concerns bees. The following applies: 100 μg/mL syrup ad libitum. The procedure: Bees and Varroa mites were obtained and contacted as detailed in Example 1 (without the treatment step).
The bees on which the Varroa mites are attached (10 bees placed in contact with 10 Varroa mites) were fed with: • A pure syrup (Negative control), or • A syrup comprising dexmedetomidine hydrochloride at 100 μg/mL syrup.
The syrup was provided to the bees ad libitum in 1.5 mL eppendorf tubes.

Data set [5] concerns bees (Apis mellifera). The procedure:
as §1, §2, §3, §4, §5

[6] abbreviates: 1 μg/μL, 1 μL on bee thorax, time not stated (monitored up to 24 hours).

Where a name gives a salt, the structure may show the parent alone. Read-outs that look alike come from different tables or passages of the source.

On to `Cc1cccc(C(C)c2cnc[nH]2)c1C` (racemic) [Medetomidine hydrochloride], for which the “Varroacid effect (in words)” value in data set [1] (0.1 μg/μL in ethanol) is “very effective”.

For the compound `Cc1cccc(Cc2cnc[nH]2)c1C` [Detomidine hydrochloride, 4-[(2,3-dimethylphenyl)-methyl]-3H-imidazole], the “mortality of the bees in the hive (in words)” value in data set [2] (220 mg/hive) is “increase in the mortality of the bees”. In data set [3] (220 mg/hive, gel, 9 days), the “Varroacid effect in the hive (in words)” value was “allows to have a Varroacid effect”.

Consider `Cc1cccc([C@H](C)c2c[nH]cn2)c1C` [Dexmedetomidine hydrochloride, (S)-4-[1-(2,3-dimethylphenyl)-ethyl]-1H-imidazole], for which, in data set [2] (55, 110, 220 mg/hive), the “bee mortality in the hive (in words)” value is reported as “no increase in bee mortality”. In data set [3] (220 mg/hive, gel, 9 days, outside the brood), the “total efficiency against Varroa mites (dead Varroa D0 to D9 / dead Varroa D0 to D16)” value is recorded as 94.5%. In addition, the “dose dependence of efficiency against Varroa mites (in words)” value in data set [3] (55, 110, 220 mg/hive) is “dose effect”. The “% bee mortality” value is 0% in data set [4] (5 min); 0% in data set [4] (1 h); 5% in data set [4] (2 h); 5% in data set [4] (3 h 30); 5% in data set [4] (3 h 45); 5% in data set [4] (24 h). In addition, the “mortality for Varroa mites” value in data set [1] (0.1 μg/μL) and in data set [1] (10 μg/μL) was 100% throughout. The mortality for bees entry in data set [5] (0.1 μg/μL, after 24 hours) is given as “less than 5%”; in data set [5] (10 μg/μL, after 24 hours) it was “less than 5%”. Further, the “mortality / toxicity for the bees” value in data set [5] (1 μg/μL, after 24 hours) is reported as “less than 5%”. Besides, in data set [5] (100 μg/μL), the toxicity for bees result is “toxic for bees”.

Turning to `Cc1ccc(/N=C/N(C)/C=N/c2ccc(C)cc2C)c(C)c1` [Amitraz], the “Varroa mites killed / mortality for Varroa mites” value in data set [1] (setting [6]) is 100%. The “bees killed / bee mortality” value in data set [5] (setting [6]) is on record as 0%.

For the origin of these results see patent US12501899B2, “Mite infestation treatment” (priority 2019, dated 2025).
